Results reported in patent US20240166645A1, “PYRIDOPYRIMIDINONE DERIVATIVE, PREPARATION METHOD THEREFOR, AND USE THEREOF” (Wuhan Humanwell Innovative Drug Research and Development …, priority 2021, published 2024).

What was measured:
KRAS G12C-SOS1 [1] = target: T1, KRAS G12C-SOS1 (Homo sapiens (Human), UniProt Q07889); assay: Inhibition test on KRAS G12C-SOS1 activity (Transcreener GDP-FI); type: biochemical
Target sequence in this assay (Q07889 564-1049 limits assumed): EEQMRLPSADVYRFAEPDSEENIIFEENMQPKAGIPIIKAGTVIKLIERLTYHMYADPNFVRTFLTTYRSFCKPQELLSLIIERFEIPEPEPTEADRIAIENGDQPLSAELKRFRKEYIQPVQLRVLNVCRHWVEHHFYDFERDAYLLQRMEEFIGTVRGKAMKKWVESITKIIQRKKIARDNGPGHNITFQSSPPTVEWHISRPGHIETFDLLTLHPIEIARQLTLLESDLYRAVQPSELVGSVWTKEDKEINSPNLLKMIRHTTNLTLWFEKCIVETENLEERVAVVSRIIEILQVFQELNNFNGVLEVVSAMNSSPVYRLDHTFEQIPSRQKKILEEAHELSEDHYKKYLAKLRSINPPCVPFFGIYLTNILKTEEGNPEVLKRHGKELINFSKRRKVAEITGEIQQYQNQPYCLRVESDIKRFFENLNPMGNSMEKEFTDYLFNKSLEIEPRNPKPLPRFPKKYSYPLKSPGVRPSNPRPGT
Procedure: The compound to be tested was prepared into a 10 mM stock solution with DMSO, and serially diluted using 1× test buffer (modified Tris buffer). The resulting compound solution was transferred to a 384-well plate, and the final content of DMSO was 0.25%, and an additional DMSO well without compound was set up as a high signal control.
1× test buffer (modified Tris buffer) was prepared. […] 5 μL of SOS1 and 5 μL of GTP were transferred to the 384-well plate, respectively.
GDP detection reagent was prepared using the test buffer. 10 μL of the detection reagent solution was transferred to the 384-well plate and incubated at room temperature for 2 h. After incubation, the plate was read on a multifunctional microplate reader (SpectraMax Paradigm) with an excitation wavelength of 580 nm and an emission wavelength of 620 nm. The fluorescence signal was read, and the inhibition rate was calculated as:
inhibition percentage=(high signal control−sample signal)/(high signal control−low signal control)×100, and IC50 values were calculated using Graphpad 5 software.

[2] = tested on: ERK phosphorylation level in DLD-1 cells; assay: Inhibition of ERK phosphorylation level in DLD-1 cells (intracellular western blot); type: cell-based; details: Homo sapiens
Procedure: Intracellular western blot quantitative analysis was used to detect the inhibitory level of compounds on ERK phosphorylation in DLD-1 cells.
DLD-1 cells (ATCC, CCL-221) were seeded in a T75 culture flask at 2.5×10^6 cells/flask and cultured in a RPMI 1640 medium containing 10% FBS for 2 days. On day 3, the cells were seeded on a 384-well plate, and cultured overnight at 37° C., 5% CO2. After overnight culture, the plate was added with serially diluted compounds (the final content of DMSO was 0.5%), the negative group was added with DMSO, and incubated in a 37° C., 5% CO2 incubator.
The cells were fixed, washed once with PBS, treated to disrupt membranes, and blocked at room temperature for 1 h. The blocking solution was removed. The plate was added with primary antibody (CST, Cat. No. #4370S), and incubated overnight at 4° C. The plate was washed 3 times with PBST (PBS solution added with 0.05% Tween-20) and soaked for 2 min each time. The plate was added with secondary antibody (LI-COR, Cat. No. 926-32211) and incubated at room temperature in the dark. The plate was washed 3 times with PBST and soaked for 2 min each time. The plate was centrifuged at 1000 rpm for 1 min, scanned on a two-color infrared laser imaging system (Odyssey® CLX) to read the signal.
Relative signal=800-channel signal values/700-channel signal values.
Relative expression level of ERK phosphorylation=(test compound−control compound I)/(DMSO group−control compound I)
(§1) IC50 values were calculated using Graphpad 5 software.

KRAS G12C-SOS1 [3] = target: T1, KRAS G12C-SOS1; assay: Inhibition test of compounds on KRAS G12C::SOS1 binding; details: GST-KRAS G12C, His-SOS1
Procedure: The compound to be tested was prepared into a 10 mM stock solution with DMSO, and the compound was serially diluted using 1× test buffer. 0.1 μL of the compound solution with different concentrations was transferred to a 384-well plate. […] 5 μL of His-SOS1 was added to the 384-well plate, centrifuged at 1000 rpm for 1 min, and incubated at room temperature for 15 min.
After incubation, 10 μL of a mixed solution of anti-6his-Tb monoclonal antibody (Cisbio, Cat. No. 61HI2TLA) and anti-GST-XL665 monoclonal antibody (Cisbio, Cat. No. 61GSTXLA) was added to the test well, centrifuged at 1000 rpm for 1 min, and incubated at room temperature for 1 h.
After incubation, the fluorescence signal ratios at 665 nm and 615 nm were read on a multifunctional microplate reader (Perkin Elmer, Envision 2104), and the IC50 values were calculated using Graphpad 5 software.
Target sequence in this assay (Q07889 whole entry, stated change not applied): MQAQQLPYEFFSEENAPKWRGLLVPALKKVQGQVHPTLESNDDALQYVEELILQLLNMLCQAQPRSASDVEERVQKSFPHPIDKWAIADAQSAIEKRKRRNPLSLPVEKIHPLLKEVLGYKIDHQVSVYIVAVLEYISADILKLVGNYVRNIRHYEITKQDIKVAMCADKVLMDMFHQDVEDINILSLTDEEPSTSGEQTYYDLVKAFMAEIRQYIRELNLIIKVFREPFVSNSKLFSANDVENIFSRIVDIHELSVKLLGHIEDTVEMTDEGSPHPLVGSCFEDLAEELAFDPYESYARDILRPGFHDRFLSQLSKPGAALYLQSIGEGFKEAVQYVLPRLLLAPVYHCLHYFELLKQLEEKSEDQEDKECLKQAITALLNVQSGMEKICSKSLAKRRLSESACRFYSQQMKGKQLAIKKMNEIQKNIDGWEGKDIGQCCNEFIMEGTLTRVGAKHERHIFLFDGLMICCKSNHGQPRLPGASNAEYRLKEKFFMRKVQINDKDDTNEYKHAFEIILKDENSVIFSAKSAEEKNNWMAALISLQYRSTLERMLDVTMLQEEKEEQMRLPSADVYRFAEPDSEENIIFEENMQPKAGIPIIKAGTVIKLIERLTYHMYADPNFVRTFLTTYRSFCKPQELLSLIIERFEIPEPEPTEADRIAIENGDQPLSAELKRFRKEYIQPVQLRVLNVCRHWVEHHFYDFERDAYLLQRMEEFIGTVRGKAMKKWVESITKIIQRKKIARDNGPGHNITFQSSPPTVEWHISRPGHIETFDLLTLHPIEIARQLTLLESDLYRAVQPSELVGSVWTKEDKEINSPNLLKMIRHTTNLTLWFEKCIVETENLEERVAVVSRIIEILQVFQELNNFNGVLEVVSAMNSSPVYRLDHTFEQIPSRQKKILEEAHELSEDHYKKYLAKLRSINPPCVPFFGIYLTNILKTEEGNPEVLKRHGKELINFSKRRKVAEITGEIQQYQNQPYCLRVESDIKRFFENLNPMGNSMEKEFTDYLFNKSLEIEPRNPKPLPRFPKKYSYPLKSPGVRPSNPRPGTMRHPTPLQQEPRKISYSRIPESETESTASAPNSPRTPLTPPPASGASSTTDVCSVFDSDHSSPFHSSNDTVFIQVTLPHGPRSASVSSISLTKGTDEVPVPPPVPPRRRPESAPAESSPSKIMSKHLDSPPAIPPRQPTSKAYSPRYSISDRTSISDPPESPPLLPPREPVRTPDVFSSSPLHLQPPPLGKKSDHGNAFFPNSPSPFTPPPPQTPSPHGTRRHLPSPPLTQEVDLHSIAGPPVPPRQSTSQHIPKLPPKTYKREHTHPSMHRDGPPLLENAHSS

[4] = Human liver microsome stability test; type: in vitro ADME; details: human liver microsomes; for Remaining percentage (%) of compound after incubation for 30 min: 37° C.; for half-life at 1 µM: human
Procedure: The human liver microsome stability test was performed by incubating the compound and human liver microsomes in vitro. First, the compound to be tested was prepared into a 10 mM stock solution in DMSO solvent, and then the compound was diluted to 0.5 mM with acetonitrile. Human liver microsomes (Corning) were diluted with PBS into a microsome/buffer solution, and the solution was used to dilute 0.5 mM compound into a working solution, in which the concentration of the compound was 1.5 μM, and the concentration of human liver microsomes was 0.75 mg/mL. A deep-well plate was taken, 30 μL of the working solution was added per well, and then 15 μL of pre-heated 6 mM NADPH solution was added thereto to initiate a reaction, and the reaction was incubated at 37° C. At 0, 5, 15, 30 and 45 min of the incubation, 135 μL of acetonitrile was added to the corresponding wells to terminate the reaction. After the reaction was terminated with acetonitrile at the last time point of 45 min, the deep-well plate was vortexed and vibrated for 10 min (600 rpm/min), and then centrifuged for 15 min. After centrifugation, the supernatant was collected, and added with purified water in a ratio of 1:1 to perform LC-MS/MS detection. A ratio of a peak area of compound to a peak area of internal standard at each time point was obtained, and the peak area ratios of the compound at 5, 15, 30 and 45 min were compared with the peak area ratio at 0 min to calculate the remaining percentage of the compound at each time point. T1/2 was calculated by using GraphPad 5 software.

[5] = Plasma protein binding by equilibrium dialysis, human plasma; type: in vitro ADME; details: 37° C., read-out: Free fraction in plasma, Human (%)
Procedure: Plasma protein binding rate of compounds was detected by equilibrium dialysis (HTDialysis, HTD 96b). The compound was prepared into a […] stock solution with DMSO, and then 25-fold diluted with 0.05 M sodium phosphate buffer as a working solution. A blank 96-well plate was taken and preloaded with 380 μL of plasma per well. The plasma was then added with the working solution at 20 μL/well and mixed well, with the compound at a final concentration of 1 μM, containing 0.2% DMSO per well.
100 μL of 0.05 M sodium phosphate buffer was added to the reception-side of each dialysis chamber (HTD 96b), and then 100 μL of plasma containing the compound was added to the supply-side. The dialysis chamber was covered with a plastic lid, shaken and incubated at 37° C. for 5 h.
After incubation, 25 μL of samples were taken from each of the supply-side and the reception-side of the dialysis chamber and placed in the blank 96-well plate. An equal volume of plasma was added to each of the supply-side samples while an equal volume of 0.05 M sodium phosphate buffer was added to each of the reception-side samples and mixed well. The 96-well plate was added with an acetonitrile solution containing internal standard at 200 μL per well, vortexed and shaken at 600 rpm for 10 min, and centrifuged at 5594 g for 15 min (Thermo Multifuge×3R). 50 μL of the supernatant was then transferred to a new 96-well plate, and the samples were mixed with 50 μL of ultra-pure water for LC-MS/MS analysis.
Plasma protein binding rate and free fraction were calculated using the following formulas: % binding rate=100×([supply-side concentration]5h−[reception-side concentration]5h)/[supply-side concentration]5h. % free fraction=100−% binding rate.

H358 cells = assay: Inhibition of 3D cell proliferation (3D CellTiter-Glo); type: cell-based; details: Homo sapiens, NCI-H358, 168 h, read-out: IC50 (nM), inhibition of 3D proliferation of H358 cells, 7 days
Procedure: H358 cells were seeded in a T75 culture flask and cultured in a RPMI 1640 medium containing 10% FBS for 2 days for subsequent experiments in which the cells would be cultured or seeded on a 384-well plate.
On day 1, the cells were seeded on the 384-well plate, with 40 μL of medium added per well and serially diluted compounds or DMSO added per well, and an additional well without seeded cells but with medium was set up as a blank control. After culture at 37° C., 5% CO2 for 7 days, the plate was added with 3D CellTiter-Glo reagent (Promega, Cat. No. G9683) on day 8, shaken at 320 rpm for 20 min, and left at room temperature for 2 h. Luminescence signals were read on a multifunctional microplate reader. Cell viability inhibition rate was calculated as:
Cell viability inhibition rate=(DMSO group−test compound)/(DMSO group−blank control group)×100%
as §1

| Compound | IC50 (KRAS G12C-SOS1 [1]) [nM] | IC50 [2] [nM] | IC50 (KRAS G12C-SOS1 [3]) [nM] | Remaining percentage (%) of compound after incubation for 30 min [4] [%] | half-life at 1 µM [4] [h] | fraction unbound at 5 h, 1 µM [5] | IC50 (H358 cells) [nM] |
| --- | --- | --- | --- | --- | --- | --- | --- |
| Cc1nc(N[C@H](C)c2cccc(S(=O)(=O)C(F)F)c2C)c2cn(C3(CF)CC3)c(=O)cc2n1 [Compound I-1, (R)-4-((1-(3-((difluoromethyl)sulfonyl)-2-methylphenyl)ethyl)amino)-6-(1-(fluoromethyl)cyclopropyl)-2-methylpyrido[4,3-d]pyrimidin-7(6H)-one] | 59 | 102 | 6.87 | 76.4 | 1.46 | 0.042 | 26 |
| Cc1nc(N[C@H](C)c2cccc(S(=O)(=O)C(F)(F)F)c2F)c2cn(C3(CF)CC3)c(=O)cc2n1 [Compound I-2, (R)-4-((1-(2-fluoro-3-((trifluoromethyl)sulfonyl)phenyl)ethyl)amino)-6-(1-(fluoromethyl)cyclopropyl)-2-methylpyrido[4,3-d]pyrimidin-7(6H)-one] | 102 | 58 | 7.73 | 96.5 | 7.92 | 0.015 | 13.9 |
